Test results published in US10058612B2, “Impaired energy processing disorders and mitochondrial deficiency” (priority 2011, dated 2018).
“Also recorded” adds a separate entry of the source. Where two headings read alike, the source gives them in different places.

Experiments:
[1] = Incorporation into animal tissues by isotope ratio mass-spectrometry; settings: 0.01-100 mg/kg diet; brain, liver, heart, lung
Procedure: Brain, liver, heart, and lung tissue are removed, and homogenate samples from control mice and test compound-treated mice are analyzed for deuterium content as described for Example 7 above.

[2] = tested on: coq null mutants (Q-less yeast); type: cell-based, S. cerevisiae; settings: for viability of cells by quantitative colony counting / viability of coq mutants after fatty acid treatment: 200 μM fatty acid; for viability of cells by quantitative colony counting: 1, 2, 4 h; for viability of coq mutants after fatty acid treatment: plate dilution assay
Procedure: FIG. 3. […] Yeast coq3, coq7 and coq9 null mutants were prepared in the W303 yeast genetic background (WT). Yeast strains were grown in YPD medium (1% Bacto-yeast extract, 2% Bacto-peptone, 2% dextrose) and harvested while in log phase growth (OD600 nm=0.1-1.0). Cells were washed twice with sterile water and resuspended in phosphate buffer (0.10 M sodium phosphate, pH 6.2, 0.2% dextrose) to an OD600 nm=0.2. Samples were removed and 1:5 serial dilutions starting at 0.20 OD/ml were plated on YPD plate medium, to provide a zero time untreated control (shown in top left panel). The designated fatty acids were added to 200 μM final concentration to 20 ml of yeast in phosphate buffer. At 2 h, 4 h, and 16 h samples were removed, 1:5 serial dilutions prepared, and spotted onto YPD plate medium. Pictures were taken after 2 days of growth at 30° C.
FIG. 4. […] The fatty acid sensitive assay was performed as described in FIG. 3, except that 100 μl aliquots were removed at 1, 2, and 4 h and, following dilution, spread onto YPD plates. Pictures were taken after 2 to 2.5 days, and the number of colonies counted. Yeast strains include Wild type (circles), atp2 (triangles), or coq3 (squares). Fatty acid treatments include oleic C18:1 (solid line), linolenic, C18:3, n-3 (dashed line) or 11,11,14,14-D4-linolenic, C18:3, n-3, (dotted line).
Q-less yeast (coq mutants) provide an ideal system to assess in vivo autoxidation of fatty acids. Coenzyme Q (ubiquinone or Q) serves as a small lipophilic antioxidant as well as an electron shuttle in the respiratory chain of the mitochondrial inner membrane.
A plate dilution assay can be used to assess PUFA sensitivity. This assay can be performed by spotting serial five-fold dilutions of aliquots onto YPD plate media (FIG. 3). The sensitivity of the different strains can be observed by visual inspection of the density of cells in each spot.

[3] = tested on: Q-less coq3 yeast strains; settings: 200 μM total ALA and D4-Lnn
Procedure: FIG. 10. […] Serial dilutions (1:5) starting at 0.2 OD/ml were spotted on YPD solid plate medium. Growth at 30° C.
Serial dilutions (1:5) starting at 0.2 OD/ml were spotted on YPD solid plate medium. Growth was at 30° C.

[4] = Study in patients suffering from Huntington's disease; settings: in vivo
Procedure: (§1) Patients with schizophrenia and free of antipsychotic medication are selected for the study. […] Each week, patients are evaluated for frequency and duration of schizophrenic episodes. Additionally, blood samples are taken each week and biomarkers of oxidative stress, such as the biomarkers described above, are measured.
A similar study can be performed with patients suffering from Huntington's disease.

[5] = Study in patients with schizophrenia; type: in vivo; settings: 0.01-100 mg/kg daily over six months
Procedure: as §1

[6] = Study in patients suffering from Bipolar Disorder; settings: in vivo
Procedure: as §1
A similar study can be performed with patients suffering from Bipolar Disorder.

[7] = tested on: Q-less coq3 yeast strains; experiment: Yeast incubation with different ratios of LA to D2-LA, plate dilution; type: cell-based
Procedure: FIG. 9. […] Wild-type, yeast Q-less coq3, or respiratory deficient cor1 null mutants were incubated in the presence of 200 μM of LA and D2-LA at different ratios of PUFAs. Serial dilutions (1:5) starting at 0.2 OD/ml were spotted on YPD solid plate medium. A zero-time untreated control is shown on the top left. Growth at 30° C.
Wild-type, yeast Q-less coq3, or respiratory deficient cor1 null mutants were incubated in the presence of 200 μM of LA and D2-LA at different ratios of PUFAs, as indicated in FIG. 9. Serial dilutions (1:5) starting at 0.2 OD/ml were spotted on YPD solid plate medium. […] Growth was at 30° C.

[8] = tested on: coq null mutants (Q-less yeast); settings: cited from earlier work
[9] = tested on: wild-type (strain W303-1B) cells; settings: four hour treatment; cited from earlier work
[10] = Kinetics of oxidation of mixtures of D2-LA and LA; type: physicochemical
Procedure: FIG. 8. Dependence of the rate of oxidation of the mixture of LA and D2-LA in chlorobenzene solution on mixture composition. Conditions: [LA]+[11,11-d2-LA]=0.775 M; [AMVN]=0.0217 M; 37° C. RIN=(1.10±0.08)×10^−7 M/sec.
To simulate the likely in vivo conditions, the kinetics of the oxidation of the mixtures of D2-LA and LA were studied (FIG. 8). In the experiments, the concentration of LA plus 11,11-d2-LA was 0.775 M; the concentration of AMVN was 0.0217 M; and the reactions were carried out at 37° C. The results afforded an RIN of 1.10±0.08×10^−7 M/sec.

[11] = Kinetics of O2 consumption during AMVN-initiated oxidation (glass capillary microvolumeter); type: physicochemical; settings: for rate of oxidation, ROX: 0.71 M in chlorobenzene, 40 mM AMVN
Procedure: FIG. 7. Kinetics of O2 consumption accompanied the oxidation of 0.71 M LA (plots 1 and 2) and 0.71 M D2-LA (plot 3) in chlorobenzene initiated by 40 mM AMVN at 37° C. Plot 2-0.23 mM HPMC was added to 0.71 M LA.
The kinetics of oxygen consumption during the oxidation of LA and D2-LA was studied with a glass capillary microvolumeter (FIG. 7). The rate of oxidation, ROX, was measured as a slope of [O2] traces. The rate of initiation, RIN, was determined by the inhibitor method with HPMC (“6-hydroxy-2,2,5,7,8-pentamethylbenzochroman”) as a reference inhibitor. RIN was calculated from the induction period of inhibited oxidation, tIND: RIN=2·[HPMC]/tIND. […] See Carpenter, “Determination of Organic Reaction Mechanisms” (John Wiley & Sons, 1984), p. 89.

Wild-type yeast cells = experiment: C11-Bodipy 581/591 lipid peroxidation in copper-stressed yeast; type: cell-based; settings: 200 μM fatty acid 2 hours, then 50 μM CuSO4 60 min
Procedure: Wild-type yeast cells were treated as described above except yeast were treated with 200 μM of the designated fatty acid for 2 hours, washed with sterile water, and were either not treated (triangles) or treated with 50 μM CuSO4 (squares) at room temperature. After 60 min of copper treatment cells were treated with 8 μM C11-Bodipy 581/591 for 30 min at room temperature. Four 100 μl aliquots were plated in a 96-well plate and the fluorescence was measured.

[12] = set-up: species or system WT mice; settings: both, mouse, in vivo, 90 days
Source text: WT mice were housed at 12 animals (males separate from females) per cage and fed for 90 days ad libitum (typically, 5-6 g/day) on the AIN 93 diet, as pellets, with 6% total fat. […] The animals were sacrificed, organs harvested and stored at low temperature prior to analysis without the use of preservation agents.

[13] = tested on: m-Fibroblasts (Frda^L3/L-; h-I54F); experiment: Friedreich's ataxia model: viability of FAC/BSO-treated fibroblasts (Promega Cell-Glow); type: cell-based; settings: for cell survival on co-administration with idebenone: compared with individual administration of idebenone, D-LA, or D-ALA
Procedure: m-Fibroblasts (Frda^L3/L-; h-I54F) have both frataxin alleles deleted and over-express a mutated form of human frataxin (I154F) that is associated with the disease. […] Cells were plated in 48 well-plates and treated with FAC and BSO for 48 h and 24 h respectively. […] At the end of the experiment, cell viability was assessed by the Promega Cell-Glow kit and measured in Arbitrary Luminescence Units (ALU) also expressed as % survival (FIG. 22). In FIG. 22, NT stands for not treated; F stands for iron ammonium citrate; B stands for buthionine sulphoximine; CC stands for carrier control DMSO (dimethylsulfoxide) used to bring the final concentration in the assay to 0.5%; and IDB stands for idebenone.
Likewise, an investigation was undertaken to measure the effects of co-administering idebenone with D-PUFAs (FIG. 23).
Additional experiments were also performed to study the effects of co-administering different D-PUFAs (data not shown). I154F cells were treated with either 100% D-LA, 75% D-LA/25% D-ALA, 50% D-LA/50% D-ALA, and 100% D-ALA.

11,11,14,14-Tetradeutero-cis,cis,cis-octadeca-8,12,15-trienoic acid [D4-ALA]
presence in tissues and cells (deuterium content) [1]: expected to be found in the tissues and cells analyzed | viability of cells by quantitative colony counting [2]: similar | viability of coq mutants after fatty acid treatment ([2]; listed as D4-linolenic acid): resistant to PUFA-mediated cell killing; also recorded: not killed | minimal amount sufficient to cancel the toxicity of ALA [3]: 15-20% | levels of biomarkers associated with oxidative stress [4]: reduce neuronal cell death and the levels of biomarkers associated with oxidative stress | levels of biomarkers associated with oxidative stress [5]: reduce the levels of biomarkers associated with oxidative stress | levels of biomarkers associated with oxidative stress [6]: reduce the levels of biomarkers associated with oxidative stress

[2H]C(/C=C\CCCCC)/C=C\CCCCCCCC(=O)O (centres unmarked) [11,11-D,H-LA, [11-^2H]-linoleic acid]
cell viability ([7]; after 3 hours of treatment, data not shown): no detectable loss in cell viability

[2H]C([2H])(/C=C\C/C=C\CC)C/C=C\CCCCCCC(=O)O [11, 11-D2-linolenic acid, 11,11-Dideutero-cis,cis,cis-octadeca-8,12,15-trienoic acid]
viability of coq mutants after fatty acid treatment [2]: comparable protection

[2H]C([2H])(/C=C\CC)/C=C\CC/C=C\CCCCCCC(=O)O [14, 14-D2-linolenic acid, 14,14-Dideutero-cis,cis,cis-octadeca-8,12,15-trienoic acid]
viability of coq mutants after fatty acid treatment [2]: comparable protection

CC/C=C\C/C=C\C/C=C\CCCCCCCC(=O)O [ALA, cis,cis,cis-9,12,15-Octadecatrienoic acid, reference compound]
viability of coq mutants after fatty acid treatment [2]: dramatic loss of viability | reduction of viability of the coq mutants ([2]; treatment for 4 h, colony counting): more than 100 fold | viable Q-less (coq2, coq3, and coq5) yeast mutants ([8]; four hour treatment): Less than 1% | wild-type cells remaining viable [9]: 70%

[2H]C([2H])(/C=C\CCCCC)/C=C\CCCCCCCC(=O)O [D2-LA, 11,11-Dideutero-cis,cis-octadeca-9,12-dienoic acid]
minimal amount sufficient to cancel the toxicity of LA ([7]; 200 μM total LA and D2-LA): 10-15% | protection of non-deuterated LA against autoxidation ([10]; mixture with LA): ‘protects’ the non-deuterated LA against autoxidation | protection against autoxidation ([10]; mixture with non-deuterated methyl linoleate, data not shown): qualititatively similar effect | levels of biomarkers associated with oxidative stress [4]: reduce neuronal cell death and the levels of biomarkers associated with oxidative stress | effect of addition of HPMC on oxidation [11]: did not result in the decrease in ROX and the appearance of any detectable induction period | length of the kinetic chain, ν=ROX/RIN [11]: ≈ 1.1 | rate of oxidation, ROX ([11]; 37° C.): 1.8e-07 M/s | kinetic isotope effect (KIE) from ROX for LA and D2-LA ([11]; chlorobenzene, 37° C.): ≈ 35 | levels of lipid peroxidation (Wild-type yeast cells): lower levels of lipid peroxidation similar to yeast not treated with PUFA | total fat being deuterated, liver [12]: about 32% | levels of biomarkers associated with oxidative stress [5]: reduce the levels of biomarkers associated with oxidative stress | levels of biomarkers associated with oxidative stress [6]: reduce the levels of biomarkers associated with oxidative stress

[2H]C([2H])(/C=C\CCCCC)/C=C\CCCCCCCC(=O)O [D-LA]
cell viability (ALU, % survival) ([13]; FAC 48 h, BSO 24 h, PUFA added 2 hours after BSO): dose-dependent rescue of viability | cell survival on co-administration with idebenone [13]: increased cell survival

CCCCC/C=C\C/C=C\CCCCCCCC(=O)O [LA, cis,cis-9,12-Octadecadienoic acid, reference compound]
length of the kinetic chain, ν=ROX/RIN [11]: 38±3 | rate of oxidation, ROX ([11]; 37° C.): 6.1e-06 M/s | oxidizability ([11]; n=5): 0.0215±0.008 M^−0.5s^−0.5

CCCCC/C=C\C/C=C\C/C=C\C/C=C\CCCC(=O)O [arachidonic acid]
sensitivity of Q-less yeast to the fatty acid [8]: hypersensitive

CCCCCCCC/C=C\CCCCCCCC(=O)O [oleic acid, reference compound]
viability of cells by quantitative colony counting [2]: similar | sensitivity of Q-less yeast to the fatty acid [8]: behave the same as the wild-type parental strain

D-ALA
cell survival on co-administration with idebenone [13]: increased cell survival
